Laboratory results: patent US9028858B2 (Coloplast A/S, priority 2003, dated 2015)
Where two headings read alike, the source gives them in different places.

Columns and labels:
[1] = system: E. coli; test: Coated catheter on inoculated agar plate, inhibition zone; type: cell-based; conditions: 1-5 g/L in 50 mM citrate (pH 5.5), 160 mM NaCl and 6% PEG 2000
Experimental: (§1) A series of antibacterial agents (See Table 12.1) were swelled into a hydrophilic coating on urinary catheters. The catheters were stored about 0, 3, 6 and 12 weeks at 25° C., 40° C., and 60° C. Agar plates were inoculated with various bacterial strains clinically isolated from infected human urine, and added the coated catheter on top of the surface of the agar. The agar plates were incubated for 18 hours at 37° C., and visually tested for presence or absence of an inhibition zone.
(§2) Catheter sections with a hydrophilic coating were swelled with a solution of the anti-microbial agents and were placed on agar plates inoculated with bacteria (clinical isolates, − and + denotes […], respectively): Proteus mirabilis (−), Pseudomonas aeruginosa (−), E. coli (−), Providencia Stuartii (−), Staphylococcus aureus (+), Enterococcus faecalis (+) and Klebsielia (−).
(§3) A highly fractionated factorial design (2^15-10IV-design) was constructed by Design Expert software (version 6.0.6) and used to screen 32 of the 2^15=32768 possible combinations, where each compound was either absent or present in a relevant concentration. […] All samples were β-sterilized with a dose of 50 kGy. The constituents and concentrations of the 32 solutions are described in Table 12.1:
(§4) Many of the 32 mixtures had powerful action against several of the 7 bacteria (0=no effect; 3=excellent effect), see Table 12.2 (sorted by decreasing antibacterial effect).

[2] = system: Enterococcus faecalis; test: as above; type: cell-based; conditions: 1-5 g/L in 50 mM citrate (pH 5.5), 160 mM NaCl and 6% PEG 2000
Experimental: as §1, §2, §3, §4

[3] = system: Klebsiella; test: as above; type: cell-based; conditions: 1-5 g/L in 50 mM citrate (pH 5.5), 160 mM NaCl and 6% PEG 2000
Experimental: as §1, §2, §3, §4

[4] = system: Proteus mirabilis; test: as above; type: cell-based; conditions: 1-5 g/L in 50 mM citrate (pH 5.5), 160 mM NaCl and 6% PEG 2000
Experimental: as §1, §2, §3, §4

[5] = system: Providencia Stuartii; test: as above; type: cell-based; conditions: 1-5 g/L in 50 mM citrate (pH 5.5), 160 mM NaCl and 6% PEG 2000
Experimental: as §1, §2, §3, §4

[6] = system: Pseudomonas aeruginosa; test: as above; type: cell-based; conditions: 1-5 g/L in 50 mM citrate (pH 5.5), 160 mM NaCl and 6% PEG 2000
Experimental: as §1, §2, §3, §4

[7] = system: Staphylococcus aureus; test: as above; type: cell-based; conditions: 1-5 g/L in 50 mM citrate (pH 5.5), 160 mM NaCl and 6% PEG 2000
Experimental: as §1, §2, §3, §4

[8] = type: physicochemical
Experimental: When the results were analyzed and further tests were carried out to confirm the results, it appeared that the effects might be third-order interactions or higher. That is, the effects came from mixtures of 3, 5, 7 or any other odd number of compounds but apparently not from main effects or 2-factor interactions. Thus, a large synergistic action between the compounds appeared to be present.

[9] = system: seven bacteria; test: Antibacterial effect / antibacterial index of silver compounds; type: cell-based; conditions: for Antibacterial index: index between 0 and 5.05; for antibacterial effect: pH 5.5, 7 and 8.5, 160 mM NaCl, 6% PEG 2000, excess undissolved salt (precipitate) present
Experimental: The solutions further contained 160 mM NaCl and 6% PEG 2000, and all solutions were sterilized with 50 kGy β- or γ-irradiation. β-Irradiation generally gave a better antibacterial effect and a smaller degree of coloration of the products than γ-irradiation, so β-irradiation was the preferred sterilization method. The silver compounds only worked when excess undissolved salt was allowed in the packaging, that is, they had no antibacterial effect when they were decanted from their precipitate.
The antibacterial effect of each compound was scored on a scale from 0 (no effect) to 3 (excellent effect) for each of the seven bacteria. The antibacterial index was defined as 5/12 multiplied by the sum of the square roots of the scores of each of the seven bacteria. Thus, the antibacterial index was a rational number between 0 and 5.05.

[10] = Appearance index of catheter and swelling medium after sterilization; type: physicochemical; conditions: 0=totally unacceptable, 5=perfect
From the text: The appearance index was a weighted average of the subjective acceptability after sterilization of catheters packed in one single compartment with catheter and swelling medium (on a scale from 0 to 5: 0=totally unacceptable, e.g. by strong color or major precipitation; 5=perfect, e.g. no coloration, no precipitate) of the hydrophilic catheter (weighted 60%) and the swelling medium (weighted 40%).

[11] = Various stabilizers: degradation of H2O2 at pH 4, 5.5 and 7; conditions: with stabilizer, 25 mM citric acid, approx. 1% H2O2
Experimental: Therefore the investigation of the influence of the pH-value on the stability in our system was included in the study.
24 different kinds of swelling media containing different stabilizers (one without stabilizer) and 3 different pH-values (pH 4, 5.5 and 7) were prepared. […] The concentration of sodium chloride in each of these three swelling media was 0.7% (w/w). Sodium chloride was tested because it could be used as an osmolality increasing agent. […] Two different kinds of material for the stick-pack were used, one with “peel” and one with “non-peel”. […] The irradiation dose was 2*26 kGy.
The stick-pack with “peel” was a laminated material consisting of PETP (12 μm), aluminium (9 μm) and polyethylene peel (polyethylene+10% polybutylene) (70 μm). […] The stick-packs were made out of a stamped area of 13×35 mm that was welded in the longitudinal direction by 1×3 units on a welder. It was welded by 2×2.2 units across in one end of the stick-pack, and in the other end by 4.0 bar, 130° C. and 3.5 s (breakable seal).
The stick-packs were stored for stability testing at 23° C. and 40° C. Samples were taken out after irradiation and after 2 and 4 weeks at 40° C. and 8 and 16 weeks at 23° C.

[12] = for Degradation rate of 1% H2O2: Rate constant (k) (%/day) / Degradation rate of 1% H2O2: log k (%/day): 500 µg/mL DETAPMP, 10 mM citrate, 0.7% NaCl, pH 4
From the text: The pH-value of the solution was adjusted to pH 4 with 4 M NaOH and 1 M HCl.
Seven swelling media were produced.
The irradiation dose was 2*26 kGy.
The stick-pack with “peel” was a laminated material consisting of PETP (12 μm), aluminium (9 μm) and polyethylene peel (polyethylene+10% polybutylene) (70 μm). The stick-packs were made out of a stamped area of 13×35 mm that was welded in the longitudinal direction by 1×3 units on a welder. It was welded by 2×2.2 units across in one end of the stick-pack, and in the other end by 4.0 bar, 130° C. and 3.5 s (breakable seal).

Compound: benzalkonium chloride
- antibacterial effect on E. coli [1]: moderate to high
- antibacterial effect on E. faecalis [2]: moderate to high
- antibacterial effect on Klebsiella [3]: moderate to high
- antibacterial effect on P. mirabilis [4]: not
- antibacterial effect on P. stuartii [5]: moderate to high
- antibacterial effect on P. aeruginosa [6]: moderate to high
- antibacterial effect on S. aureus [7]: moderate to high

Compound: [H]/N=C(\N/C(=N/[H])NCCCCCCNC(=N)NC(=N)Nc1ccc(Cl)cc1)Nc1ccc(Cl)cc1 [Chlorhexidine, chlorhexidine digluconate]
- solubility [8]: sparingly soluble

Compound: O=C1CNC(=O)[N-]1.[Ag+] [Hydantoinate, silver hydantoinate]
- Antibacterial index ([9]; pH 5.5, 0.01% H2O2 added): 2.3
- antibacterial effect [9]: moderate to excellent
- Antibacterial index ([9]; pH 5.5, no H2O2 added): 2.7
- Antibacterial index ([9]; pH 7, no H2O2 added): 3.3
- Antibacterial index ([9]; pH 8.5, no H2O2 added): 3.2
- Appearance index ([10]; pH 5.5, 0.01% H2O2 added): 3.6
- Appearance index ([10]; pH 5.5, no H2O2 added): 4
- Appearance index ([10]; pH 7, no H2O2 added): 3.4
- Appearance index ([10]; pH 8.5, no H2O2 added): 2.8

Compound: CC(O)(P(=O)(O)O)P(=O)(O)O [HEDP, 1-Hydroxyethane-1,1 diphosphonic acid]
- calculated amount of degraded H2O2 after 2 years of storage at 23° C. ([11]; pH 4): 65.4%
- calculated amount of degraded H2O2 after 2 years of storage at 23° C. ([11]; pH 5.5): 150.0%
- calculated amount of degraded H2O2 after 2 years of storage at 23° C. ([11]; pH 7): 351.1%

Compound: polymeric silver imidazolate
- Antibacterial index ([9]; pH 5.5, 0.01% H2O2 added): 2.7
- antibacterial effect [9]: moderate to excellent
- Antibacterial index ([9]; pH 5.5, no H2O2 added): 0.8
- Antibacterial index ([9]; pH 7, no H2O2 added): 3.2
- Antibacterial index ([9]; pH 8.5, no H2O2 added): 2.8
- Appearance index ([10]; pH 5.5, 0.01% H2O2 added): 3
- Appearance index ([10]; pH 5.5, no H2O2 added): 3.4
- Appearance index ([10]; pH 7, no H2O2 added): 4.2
- Appearance index ([10]; pH 8.5, no H2O2 added): 3.2

Compound: CC1(C)NC(=O)[N-]C1=O.[Ag+] [5,5-DMH, silver 5,5-dimethylhydantoinate]
- Antibacterial index ([9]; pH 5.5, 0.01% H2O2 added): 1.4
- antibacterial effect [9]: moderate to excellent
- Antibacterial index ([9]; pH 5.5, no H2O2 added): 1.8
- Antibacterial index ([9]; pH 7, no H2O2 added): 3.4
- Antibacterial index ([9]; pH 8.5, no H2O2 added): 1.7
- Appearance index ([10]; pH 5.5, 0.01% H2O2 added): 5
- Appearance index ([10]; pH 5.5, no H2O2 added): 2.8
- Appearance index ([10]; pH 7, no H2O2 added): 3.4
- Appearance index ([10]; pH 8.5, no H2O2 added): 2.2

Compound: [Cl][Ag] [silver chloride]
- solubility [8]: sparingly soluble

Compound: O=P(O)(O)CN(CCN(CP(=O)(O)O)CP(=O)(O)O)CCN(CP(=O)(O)O)CP(=O)(O)O [DETAPMP, Diethylenetriaminepenta(methylenephosphonic)acid]
- Concentration of H2O2 (%) after storage at 40° C. ([12]; 50 mg/L DETAPMP, 0 days): 0.92%
- Concentration of H2O2 (%) after storage at 40° C. ([12]; 50 mg/L DETAPMP, 14 days): 0.89%
- Concentration of H2O2 (%) after storage at 40° C. ([12]; 50 mg/L DETAPMP, 25 days): 0.89%
- Concentration of H2O2 (%) after storage at 40° C. ([12]; 100 mg/L DETAPMP, 0 days): 0.91%
- Concentration of H2O2 (%) after storage at 40° C. ([12]; 100 mg/L DETAPMP, 14 days): 0.89%
- Concentration of H2O2 (%) after storage at 40° C. ([12]; 100 mg/L DETAPMP, 25 days): 0.88%
- Concentration of H2O2 (%) after storage at 40° C. ([12]; 150 mg/L DETAPMP, 0 days): 0.91%
- Concentration of H2O2 (%) after storage at 40° C. ([12]; 150 mg/L DETAPMP, 14 days): 0.90%
- Concentration of H2O2 (%) after storage at 40° C. ([12]; 150 mg/L DETAPMP, 25 days): 0.89%
- Concentration of H2O2 (%) after storage at 40° C. ([12]; 200 mg/L DETAPMP, 0 days): 0.91%
- Concentration of H2O2 (%) after storage at 40° C. ([12]; 200 mg/L DETAPMP, 14 days): 0.89%
- Concentration of H2O2 (%) after storage at 40° C. ([12]; 200 mg/L DETAPMP, 25 days): 0.89%
- Concentration of H2O2 (%) after storage at 40° C. ([12]; 250 mg/L DETAPMP, 0 days): 0.90%
- Concentration of H2O2 (%) after storage at 40° C. ([12]; 250 mg/L DETAPMP, 14 days): 0.89%
- Concentration of H2O2 (%) after storage at 40° C. ([12]; 250 mg/L DETAPMP, 25 days): 0.89%
- Concentration of H2O2 (%) after storage at 40° C. ([12]; 350 mg/L DETAPMP, 0 days): 0.91%
- Concentration of H2O2 (%) after storage at 40° C. ([12]; 350 mg/L DETAPMP, 14 days): 0.89%
- Concentration of H2O2 (%) after storage at 40° C. ([12]; 350 mg/L DETAPMP, 25 days): 0.89%
- Concentration of H2O2 (%) after storage at 40° C. ([12]; 500 mg/L DETAPMP, 0 days): 0.91%
- Concentration of H2O2 (%) after storage at 40° C. ([12]; 500 mg/L DETAPMP, 14 days): 0.89%
- Concentration of H2O2 (%) after storage at 40° C. ([12]; 500 mg/L DETAPMP, 25 days): 0.89%
- Degradation rate of 1% H2O2: Rate constant (k) (%/day) ([12]; 40° C.): 0.0932 %/day
- Degradation rate of 1% H2O2: log k (%/day) ([12]; 40° C.): −1.031 %/day
- Degradation rate of 1% H2O2: Rate constant (k) (%/day) ([12]; 50° C.): 0.1722 %/day
- Degradation rate of 1% H2O2: log k (%/day) ([12]; 50° C.): −0.764 %/day
- Degradation rate of 1% H2O2: Rate constant (k) (%/day) ([12]; 60° C.): 0.3691 %/day
- Degradation rate of 1% H2O2: log k (%/day) ([12]; 60° C.): −0.433 %/day
- activation energy for the degradation of H2O2 ([12]; Arrhenius plot 40-60° C., DETAPMP at pH 4 and 10 mM citrate): 14.2 kcal/mol
- Q10 of H2O2 degradation rate ([12]; DETAPMP at pH 4 and 10 mM citrate): ≈ 2
